Literature values in patent publication US20170202917A1, “PHARMACEUTICAL COMPOSITION FOR PREVENTING OR TREATING SKIN RASH” (DAEWOONG PHARMACEUTICAL CO., LTD., priority 2014, published 2017).

Experiments:
[1] = tested on: skin rashes; conditions: prophylactic treatment

Structure (SMILES)	overall incidence of erlotinib-related skin effects (ERSEs) (NSCLC and PC clinical trials)	incidence of grade 3-4 ERSEs (NSCLC and PC clinical trials, of the patients)	time to development of rash after starting treatment (rash above the waist)	improvement in skin rashes compared with placebo [1]
C#Cc1cccc(Nc2ncnc3cc(OCCOC)c(OCCOC)cc23)c1 [erlotinib]	75%	about 10%	7 to 10 days	
CN(C)[C@@H]1C(O)=C(C(N)=O)C(=O)[C@@]2(O)C(O)=C3C(=O)c4c(O)cccc4[C@@](C)(O)[C@H]3C[C@@H]12 [tetracycline]				30%
